Experimental data: PubChem BioAssay (NCI)
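Assay format: 96-well plates, 48-hour exposure. Here, GI50 denotes the concentration required for 50% inhibition of growth. The concentration for full growth arrest is given as TGI.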

Experiments:
Experiment in all cases: inhibition of tumour cell growth, NCI panel, 48 h
[1] = test system: HT29 colon
[2] = test system: HCC-2998 colon
[3] = test system: HOP-92 NSCLC
[4] = test system: HOP-62 NSCLC
[5] = test system: NCI-H460 lung
[6] = test system: CCRF-CEM leukemia
[7] = test system: 786-0 renal
[8] = test system: A498 renal
[9] = test system: NCI-H23 lung
[10] = test system: CAKI-1 renal
[11] = test system: SN12C renal
[12] = test system: SW-620 colon
[13] = test system: SF-295 CNS
[14] = test system: DU-145 prostate
[15] = test system: COLO 205 colon
[16] = test system: TK-10 renal
[17] = test system: NCI/ADR-RES ovarian
[18] = test system: T-47D breast
[19] = test system: SF-268 CNS
[20] = test system: OVCAR-8 ovarian
[21] = test system: K-562 leukemia
[22] = test system: MCF7 breast
[23] = test system: UACC-257 melanoma
[24] = test system: UACC-62 melanoma
[25] = test system: U251 CNS
[26] = test system: SK-OV-3 ovarian
[27] = test system: BT-549 breast
[28] = test system: OVCAR-4 ovarian
[29] = test system: NCI-H226 lung
[30] = test system: RPMI-8226 leukemia
[31] = test system: HL-60(TB) leukemia
[32] = test system: OVCAR-5 ovarian
[33] = test system: LOX IMVI melanoma
[34] = test system: PC-3 prostate
[35] = test system: HS 578T breast
[36] = test system: SF-539 CNS
[37] = test system: SK-MEL-5 melanoma
[38] = test system: KM12 colon
[39] = test system: ACHN renal
[40] = test system: MDA-MB-435
[41] = test system: OVCAR-3 ovarian
[42] = test system: HCT-15 colon
[43] = test system: MDA-MB-231 breast
[44] = test system: SK-MEL-28 melanoma
[45] = test system: A549 NSCLC
[46] = test system: M14 melanoma
[47] = test system: SK-MEL-2 melanoma
[48] = test system: SNB-75 CNS
[49] = test system: IGROV1 ovarian
[50] = test system: MOLT-4 leukemia
[51] = test system: SNB-19 CNS
[52] = test system: RXF 393 renal
[53] = test system: NCI-H522 lung
[54] = test system: UO-31 renal
[55] = test system: HCT-116 colon
[56] = test system: MALME-3M melanoma
[57] = test system: SR leukemia

For COc1ccc2c(c1)O/C(=C\c1ccc([N+](=O)[O-])o1)C2=O, the GI50 [1] was 452 nM, the TGI [1] was 1920 nM and the GI50 [2] was 1810 nM. For the same compound, the TGI [2] was 3640 nM, the GI50 [3] was 1950 nM and the TGI [3] was 5620 nM. For the same compound, the GI50 [4] was 2050 nM, the TGI [4] was 6560 nM and the GI50 [5] was 598 nM. The TGI [5] was 3890 nM, the GI50 [6] was 340 nM and the TGI [6] was 1700 nM. The GI50 [7] was 1990 nM, the TGI [7] was 4830 nM and the GI50 [8] was 1740 nM. It also gave a TGI [8] of 4540 nM, a GI50 [9] of 1990 nM and a TGI [9] of 5810 nM. For the same compound, the GI50 [10] was 452 nM, the TGI [10] was 2120 nM and the GI50 [11] was 2450 nM. The TGI [11] was over 100000 nM, the GI50 [12] was 294 nM and the TGI [12] was 1390 nM. The GI50 [13] was 2470 nM, the TGI [13] was 11600 nM and the GI50 [14] was 775 nM. It also gave a TGI [14] of 7940 nM, a GI50 [15] of 1180 nM and a TGI [15] of 3120 nM. For the same compound, the GI50 [16] was 2130 nM, the TGI [16] was 9490 nM and the GI50 [17] was 2740 nM. It also gave a TGI [17] of over 30100 nM, a GI50 [18] of 1400 nM and a TGI [18] of 8830 nM. The GI50 [19] was 2000 nM, the TGI [19] was 16800 nM and the GI50 [20] was 1410 nM. For the same compound, the TGI [20] was 7460 nM, the GI50 [21] was 352 nM and the TGI [21] was 1910 nM. It also gave a GI50 [22] of 345 nM, a TGI [22] of 3120 nM and a GI50 [23] of 1720 nM. The TGI [23] was 3850 nM, the GI50 [24] was 1590 nM and the TGI [24] was 3540 nM. For the same compound, the GI50 [25] was 1980 nM, the TGI [25] was 6560 nM and the GI50 [26] was 4750 nM. It also gave a TGI [26] of 59000 nM, a GI50 [27] of 1560 nM and a TGI [27] of 3070 nM. For the same compound, the GI50 [28] was 1870 nM, the TGI [28] was 6500 nM and the GI50 [29] was 3440 nM. It also gave a TGI [29] of 23600 nM, a GI50 [30] of 367 nM and a TGI [30] of 2330 nM. For the same compound, the GI50 [31] was 1800 nM, the TGI [31] was 5690 nM and the GI50 [32] was 2270 nM. For the same compound, the TGI [32] was 5780 nM, the GI50 [33] was 1140 nM and the TGI [33] was 2960 nM. It also gave a GI50 [34] of 2140 nM, a TGI [34] of over 25500 nM and a GI50 [35] of 2360 nM. It also gave a TGI [35] of 7320 nM, a GI50 [36] of 1600 nM and a TGI [36] of 4140 nM. It also gave a GI50 [37] of 1560 nM, a TGI [37] of 3080 nM and a GI50 [38] of 1370 nM. For the same compound, the TGI [38] was 3420 nM, the GI50 [39] was 625 nM and the TGI [39] was 2690 nM. The GI50 [40] was 1610 nM, the TGI [40] was 3490 nM and the GI50 [41] was 1190 nM. The TGI [41] was 2530 nM, the GI50 [42] was 271 nM and the TGI [42] was 1260 nM. The GI50 [43] was 2030 nM, the TGI [43] was 6630 nM and the GI50 [44] was 2170 nM. For the same compound, the TGI [44] was 5020 nM, the GI50 [45] was 2430 nM and the TGI [45] was 8040 nM. It also gave a GI50 [46] of 1640 nM, a TGI [46] of 3740 nM and a GI50 [47] of 2130 nM. For the same compound, the TGI [47] was 4010 nM, the GI50 [48] was 2240 nM and the TGI [48] was 8260 nM. For the same compound, the GI50 [49] was 1350 nM, the TGI [49] was 7300 nM and the GI50 [50] was 2130 nM. The TGI [50] was 8260 nM, the GI50 [51] was 3090 nM and the TGI [51] was over 100000 nM. For the same compound, the GI50 [52] was 1470 nM, the TGI [52] was 2990 nM and the GI50 [53] was 1250 nM. For the same compound, the TGI [53] was 2570 nM, the GI50 [54] was 1410 nM and the TGI [54] was 4300 nM. The GI50 [55] was 246 nM, the TGI [55] was 747 nM and the GI50 [56] was 2450 nM. It also gave a TGI [56] of 5770 nM, a GI50 [57] of 178 nM and a TGI [57] of 964 nM.
